Measurements as given in PMC8273037 (The Journal of Antibiotics, 2021).
pEC50: −log10 of the molar value. Converted amounts (≈) assume the structure as drawn. “And” between values parts separate entries of the source, which are not always exact repeats. Equal entries are not always repeated. Where two headings read alike, the source gives them in different places. Each block holds one compound with its values, some of them ahead of it.

How the values were obtained:
[1] = test system: S. aureus and MRSA; conditions: cited from earlier work
[2] = test system: P. aeruginosa; conditions: cited from earlier work
[3] = test system: E. coli; conditions: cited from earlier work
[4] = test system: Human cytomegalovirus, strain GDGr K17 (resistant isolate); assay: HCMV resistant isolate cytopathic effect reduction assay; format: cell-based; conditions: for pEC50 / EC90: Human betaherpesvirus 5, HFF; for pEC50: read-out: EC50 (reduced viral replication by 50%); for EC90: read-out: EC90 (reduced viral replication by 90%)
[5] = test system: HIV-1; conditions: read-out: EC50, inhibition of infectivity of HIV-1 in vitro; cited from earlier work
[6] = test system: Herpes simplex virus 1, strain E-377; assay: HSV-1 cytopathic effect reduction assay; format: cell-based
[7] = test system: Klebsiella pneumoniae ATCC 700603 (MDR); assay: Antibacterial growth inhibition / MIC; format: cell-based; conditions: hit confirmation
[8] = test system: Acinetobacter baumannii ATCC 19606; assay: Antibacterial growth inhibition / MIC; conditions: hit confirmation
[9] = test system: Human papillomavirus 11, strain HE611260.1; assay: HPV-11 NanoLuc reporter replication assay; format: cell-based
[10] = Cytotoxicity in C-33 A cells; format: cell-based; conditions: human

Compound: C[C@H]1[C@H](C)CC[C@]2(C(=O)O)CC[C@]3(C)C(=CC[C@@H]4[C@@]5(C)CC[C@H](O)C(C)(C)[C@@H]5CC[C@]43C)[C@H]12 [ursolic acid]
- MIC ([1]; MRSA strain): 64 µg/mL (≈ 140 µM)

Compound: CC1(C)CCC2(C(=O)NCCNCCN)CCC3(C)C(=CCC4C5(C)CCC(=O)C(C)(C)C5CCC43C)C2C1 (stereo not shown) [Oleanonic acid amide with diethylentriamine]
- MIC [2]: 50 µM (≈ 27 µg/mL)
- MIC [3]: 25 µM (≈ 13.5 µg/mL)

Compound: Nc1nc(O)c2ncn(COC(CO)CO)c2n1 [Ganciclovir]
- pEC50 [4]: < 3.82
- EC90 [4]: > 150 µM

Compound: C=C(C)[C@@H]1CC[C@]2(C(=O)O)CC[C@]3(C)[C@H](CC[C@@H]4[C@@]5(C)CC[C@H](O)C(C)(C)[C@@H]5CC[C@]43C)[C@@H]12 [betulinic acid]
- pEC50 [5]: 5.85

Compound: Nc1ccn(C[C@@H](CO)OCP(=O)(O)O)c(=O)n1 [Cidofovir]
- SI50 selectivity index (CC50/EC50) ([4]; HCMV GDGr K17 (resistant isolate), HFF cells): 120
- pEC50 [4]: 6.04
- EC90 [4]: > 30 µM

- EC90 ([6]; Human alphaherpesvirus 1, HFF, read-out: EC90 (reduced viral replication by 90%)): > 150 µM
- pEC50 ([6]; read-out: EC50 (reduced viral replication by 50%), HSV-1 E-377, HFF cells): 6.08
Compound: Nc1nc2c(ncn2COCCO)c(=O)[nH]1 [Acyclovir]
- SI50 selectivity index (CC50/EC50) ([6]; HSV-1 E-377, HFF cells): >172 and >181

Compound: Colistin sulfate
- MIC, K. pneumoniae [7]: 0.15 µM
- MIC, A. baumannii [8]: 0.15 µM

Compound: 3-amino-3,4-seco-28-amino-lup-4(23),20(29)-dien
- MIC ([1]; MRSA, bacteriostatic effect): ≤ 0.25 µg/mL

- pEC50 ([9]; human papillomavirus 11, C-33-A, read-out: EC50 (reduced viral replication by 50%)): 6.17
- EC90 ([9]; human papillomavirus 11, C-33-A, read-out: EC90 (reduced viral replication by 90%)): 101 µM
Compound: Nc1nc2c(ncn2CCOCP(=O)(O)O)c(=O)[nH]1 [9-[2-(Phosphonomethoxy)ethyl]guanine]
- SI50 selectivity index (CC50/EC50) ([9]; HPV-11, C-33 A cells): >221
- CC50 [10]: > 150 µM
